Measurements published in ChEMBL document CHEMBL5113488, “Design, synthesis and antitumor activity study of a gemcitabine prodrug conjugated with a HDAC6 inhibitor” (Bioorg Med Chem Lett, 2022).
Activity calls are given as the source filed them. The calls are words filed in the database; no cut-off is given here.

Legend:
Cytochrome P450 3A2 [1] = biological target: T1, Cytochrome P450 3A2 (Rattus norvegicus, UniProt P05183); assay: Inhibition of CYP3A2-mediated metabolite formation in rat liver microsomes assessed as reduction in N-(1-((2R,4R,5R)-3,3-difluoro-4-hydroxy-5-(hydroxymethyl)tetrahydrofuran-2-yl)-2-oxo-1,2-dihydropyrimidin-4-yl)pentadecanamide metabolism; format: ADME, Microsome
T1 sequence (P05183 whole entry): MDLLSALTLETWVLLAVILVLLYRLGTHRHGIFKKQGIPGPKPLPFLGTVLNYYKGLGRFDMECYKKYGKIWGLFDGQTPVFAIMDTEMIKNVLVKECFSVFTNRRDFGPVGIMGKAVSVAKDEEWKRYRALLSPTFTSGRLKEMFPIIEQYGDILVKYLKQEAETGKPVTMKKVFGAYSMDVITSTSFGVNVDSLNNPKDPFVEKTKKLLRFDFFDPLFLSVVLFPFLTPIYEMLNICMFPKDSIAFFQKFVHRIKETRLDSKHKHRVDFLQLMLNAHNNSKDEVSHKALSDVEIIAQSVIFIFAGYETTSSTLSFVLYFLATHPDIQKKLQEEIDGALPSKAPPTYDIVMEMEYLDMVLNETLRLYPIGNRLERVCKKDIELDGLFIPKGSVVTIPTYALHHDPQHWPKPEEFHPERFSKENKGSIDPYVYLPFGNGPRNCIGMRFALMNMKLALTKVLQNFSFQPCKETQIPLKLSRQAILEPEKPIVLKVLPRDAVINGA

4T1 [2] = assay: Antiproliferative activity against mouse 4T1 cells assessed as inhibition of cell growth; format: functional, cell-based
Cytochrome P450 2E1 = Cytochrome P450 2E1 (Rattus norvegicus, UniProt P05182); assay: Inhibition of CYP2E1 in rat liver microsomes using chlorzoxazone as substrate; format: ADME, Microsome
Sequence of Cytochrome P450 2E1 (P05182 whole entry): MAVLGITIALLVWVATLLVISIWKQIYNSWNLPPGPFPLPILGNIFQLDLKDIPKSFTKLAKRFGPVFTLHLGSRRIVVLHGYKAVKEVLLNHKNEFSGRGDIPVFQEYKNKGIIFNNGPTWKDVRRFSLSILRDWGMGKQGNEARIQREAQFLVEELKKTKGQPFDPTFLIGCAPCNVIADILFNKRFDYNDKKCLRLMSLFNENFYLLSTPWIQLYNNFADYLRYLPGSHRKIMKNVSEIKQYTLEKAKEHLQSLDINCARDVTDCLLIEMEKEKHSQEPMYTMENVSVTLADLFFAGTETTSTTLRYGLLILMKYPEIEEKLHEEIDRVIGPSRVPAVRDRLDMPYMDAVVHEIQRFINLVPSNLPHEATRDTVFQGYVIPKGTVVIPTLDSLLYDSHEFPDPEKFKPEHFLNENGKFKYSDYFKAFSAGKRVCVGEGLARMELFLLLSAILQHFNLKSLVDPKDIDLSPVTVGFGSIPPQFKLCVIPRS

[3] = Toxicity in mouse implanted with mouse 4T1 cells assessed as pathological damage in heart at 5 to 10 mg/kg administered for 15 days by H and E staining based analysis; format: organism-based; conditions: 4t1, 360 h, dose 5-10 mg/kg, time 15 day
[4] = Toxicity in mouse implanted with mouse 4T1 cells assessed as body weight loss at 5 to 10 mg/kg administered for 15 days; format: organism-based; conditions: 4t1, 360 h, dose 5-10 mg/kg, time 15 day
4T1 [5] = assay: Antitumor activity against mouse 4T1 cells implanted in mouse assessed as tumor growth inhibition at 10 mg/kg administered for 15 days relative to control; format: functional; conditions: 4T1, 360 h, time 15 day, read-out: TGI
HeLa = assay: Antiproliferative activity against human HeLa cells assessed as inhibition of cell growth; format: functional, cell-based
Huh-7 = assay: Antiproliferative activity against human Huh-7 cells assessed as inhibition of cell growth; format: functional, cell-based
MDA-MB-231 [6] = assay: Antiproliferative activity against human MDA-MB-231 cells assessed as inhibition of cell growth; format: functional, cell-based
4T1 [7] = assay: Antitumor activity against mouse 4T1 cells implanted in mouse assessed as tumor growth inhibition at 5 mg/kg administered for 15 days relative to control; format: functional; conditions: 4T1, 360 h, time 15 day, read-out: TGI
HCT-116 = assay: Antiproliferative activity against human HCT-116 cells assessed as inhibition of cell growth; format: functional, cell-based
SK-OV-3 = assay: Antiproliferative activity against human SK-OV-3 cells assessed as inhibition of cell growth; format: functional, cell-based
MDA-MB-231 [8] = assay: Antiproliferative activity against human MDA-MB-231 cells assessed as inhibition of cell growth incubated in presence of 10 uM imatinib; format: functional, cell-based
Cytochrome P450 1A2 = biological target: T2, Cytochrome P450 1A2 (Rattus norvegicus, UniProt P04799); assay: Inhibition of CYP1A2 in rat liver microsomes using phenacetin as substrate; format: ADME, Microsome
T2 sequence (P04799 whole entry): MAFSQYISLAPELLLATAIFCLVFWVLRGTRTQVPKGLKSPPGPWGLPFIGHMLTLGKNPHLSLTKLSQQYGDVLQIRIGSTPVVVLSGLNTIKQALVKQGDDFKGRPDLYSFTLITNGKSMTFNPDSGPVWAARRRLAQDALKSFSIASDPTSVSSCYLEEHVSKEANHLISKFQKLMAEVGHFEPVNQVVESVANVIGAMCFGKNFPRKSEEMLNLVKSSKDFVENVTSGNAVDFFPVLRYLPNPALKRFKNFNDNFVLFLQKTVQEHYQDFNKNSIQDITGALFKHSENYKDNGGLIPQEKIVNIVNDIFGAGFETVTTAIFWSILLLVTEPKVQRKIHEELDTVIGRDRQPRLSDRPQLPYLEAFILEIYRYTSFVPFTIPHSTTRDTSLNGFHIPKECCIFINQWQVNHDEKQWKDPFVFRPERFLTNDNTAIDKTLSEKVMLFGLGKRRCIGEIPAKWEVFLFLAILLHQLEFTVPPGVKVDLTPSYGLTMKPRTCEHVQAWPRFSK

SGC-7901 = assay: Antiproliferative activity against human SGC-7901 cells assessed as inhibition of cell growth; format: functional, cell-based
A549 = assay: Antiproliferative activity against human A549 cells assessed as inhibition of cell growth; format: functional, cell-based
Cytochrome P450 2C6 = biological target: T3, Cytochrome P450 2C6 (Rattus norvegicus, UniProt P05178); assay: Inhibition of CYP2C6 in rat liver microsomes using diclofenac as substrate; format: ADME, Microsome
T3 sequence (P05178 whole entry): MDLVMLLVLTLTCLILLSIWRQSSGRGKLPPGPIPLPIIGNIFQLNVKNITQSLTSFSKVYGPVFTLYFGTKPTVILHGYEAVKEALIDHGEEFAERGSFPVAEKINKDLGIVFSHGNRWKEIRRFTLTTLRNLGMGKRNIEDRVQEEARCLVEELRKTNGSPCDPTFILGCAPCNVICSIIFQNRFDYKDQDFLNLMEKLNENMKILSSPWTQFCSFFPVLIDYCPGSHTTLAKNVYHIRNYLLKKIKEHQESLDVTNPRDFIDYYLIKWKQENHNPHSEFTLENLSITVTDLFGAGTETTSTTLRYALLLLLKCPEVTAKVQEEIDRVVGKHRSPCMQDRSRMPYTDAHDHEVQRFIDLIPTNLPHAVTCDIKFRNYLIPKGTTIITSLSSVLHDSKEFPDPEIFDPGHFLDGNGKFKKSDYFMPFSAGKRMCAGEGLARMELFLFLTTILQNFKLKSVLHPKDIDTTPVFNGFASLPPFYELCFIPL

MDA-MB-231 [9] = assay: Induction of DNA damage in human MDA-MB-231 cells assessed as increase in phospho-gamma-H2A.X expression level at 0.3 to 3 uM; format: functional, cell-based; conditions: dose 0.3-3 µM
MDA-MB-231 [10] = assay: Antiproliferative activity against human MDA-MB-231 cells assessed as inhibition of cell growth pretreated with hENT1 inhibitor, dipyridamole at 10 uM followed by compound addition; format: functional, cell-based
[11] = Toxicity in mouse implanted with mouse 4T1 cells assessed as pathological damage in kidney at 5 to 10 mg/kg administered for 15 days by H and E staining based analysis; format: organism-based; conditions: 4t1, 360 h, dose 5-10 mg/kg, time 15 day
[12] = Toxicity in mouse implanted with mouse 4T1 cells assessed as pathological damage in liver at 5 to 10 mg/kg administered for 15 days by H and E staining based analysis; format: organism-based; conditions: 4t1, 360 h, dose 5-10 mg/kg, time 15 day
Cytochrome P450 3A2 [13] = biological target: T1, Cytochrome P450 3A2; assay: Inhibition of CYP3A2 in rat liver microsomes using midazolam as substrate; format: ADME, Microsome
Cytochrome P450 2D1 = biological target: T4, Cytochrome P450 2D1 (Rattus norvegicus, UniProt P10633); assay: Inhibition of CYP2D1 in rat liver microsomes using dextromethorphan as substrate; format: ADME, Microsome
T4 sequence (P10633 whole entry): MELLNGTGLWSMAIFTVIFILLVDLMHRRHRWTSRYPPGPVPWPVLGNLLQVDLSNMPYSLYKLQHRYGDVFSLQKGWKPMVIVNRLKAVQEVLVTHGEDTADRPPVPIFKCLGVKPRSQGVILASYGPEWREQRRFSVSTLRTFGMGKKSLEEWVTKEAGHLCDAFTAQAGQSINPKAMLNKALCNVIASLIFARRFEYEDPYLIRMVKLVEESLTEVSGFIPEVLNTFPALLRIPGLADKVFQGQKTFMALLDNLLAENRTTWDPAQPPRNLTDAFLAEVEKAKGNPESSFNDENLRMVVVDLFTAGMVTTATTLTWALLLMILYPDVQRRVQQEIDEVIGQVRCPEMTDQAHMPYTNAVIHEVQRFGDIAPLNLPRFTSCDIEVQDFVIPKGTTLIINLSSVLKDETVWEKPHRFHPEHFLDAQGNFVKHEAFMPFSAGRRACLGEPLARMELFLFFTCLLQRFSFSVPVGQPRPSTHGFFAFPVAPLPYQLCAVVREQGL

PANC-1 = assay: Antiproliferative activity against human PANC-1 cells assessed as inhibition of cell growth; format: functional, cell-based

IC50 (4T1 [2]) [µM]	IC50 (HeLa) [µM]	IC50 (Huh-7) [µM]	IC50 (MDA-MB-231 [6]) [µM]	IC50 (HCT-116) [µM]	IC50 (SK-OV-3) [µM]	IC50 (MDA-MB-231 [8]) [µM]	IC50 (SGC-7901) [µM]	IC50 (A549) [µM]	IC50 (MDA-MB-231 [10]) [µM]	IC50 (PANC-1) [µM]	SMILES	inhibition in vivo at 10 mg/kg (4T1 [5]) [%]	also measured
											CC(=O)N1CCN(c2ccc(OCC3COC(Cn4ccnc4)(c4ccc(Cl)cc4Cl)O3)cc2)CC1 (stereo unspecified) [KETOCONAZOLE]		inhibition (INH) (Cytochrome P450 3A2 [1]): Active
0.66	0.43	0.12	0.14	0.3	0.62	0.072	3.7	0.14	0.17	1.08	CCCCCCCCCCCCCCC(=O)Nc1ccn([C@@H]2O[C@H](CO)[C@@H](O)C2(F)F)c(=O)n1	83.8	Ki (Cytochrome P450 2E1): 196 µM; Activity [3]: Non-Toxic; Activity [4]: Non-Toxic; inhibition in vivo at 5 mg/kg (4T1 [7]): 73.2%; Ki (Cytochrome P450 1A2): 127 µM; Ki (Cytochrome P450 2C6): 203 µM; Activity (MDA-MB-231 [9]): Active; Activity [11]: Non-Toxic; Activity [12]: Non-Toxic; Ki (Cytochrome P450 3A2 [13]): 52.6 µM; Ki (Cytochrome P450 2D1): 179 µM
7.17	1.99	0.74	2.01	3.05	0.44	0.818	9.32	0.38	7.21	1.34	Nc1ccn([C@@H]2O[C@H](CO)[C@@H](O)C2(F)F)c(=O)n1 [GEMCITABINE]	58.7	
